The text below walks through data of patent US6448405B1, “Steroid receptor modulator compounds and methods” (Ligand Pharmaceuticals Incorporated, priority 1994, dated 2002).

Where two headings read alike, the source gives them in different places.

Assay [1] concerns the target T1, human androgen receptor (AR) (Homo sapiens, UniProt P10275).
T1 construct: expressed in transfected cells; host or cells: CV-1 cells, transient transfection
T1 sequence (P10275 1-920): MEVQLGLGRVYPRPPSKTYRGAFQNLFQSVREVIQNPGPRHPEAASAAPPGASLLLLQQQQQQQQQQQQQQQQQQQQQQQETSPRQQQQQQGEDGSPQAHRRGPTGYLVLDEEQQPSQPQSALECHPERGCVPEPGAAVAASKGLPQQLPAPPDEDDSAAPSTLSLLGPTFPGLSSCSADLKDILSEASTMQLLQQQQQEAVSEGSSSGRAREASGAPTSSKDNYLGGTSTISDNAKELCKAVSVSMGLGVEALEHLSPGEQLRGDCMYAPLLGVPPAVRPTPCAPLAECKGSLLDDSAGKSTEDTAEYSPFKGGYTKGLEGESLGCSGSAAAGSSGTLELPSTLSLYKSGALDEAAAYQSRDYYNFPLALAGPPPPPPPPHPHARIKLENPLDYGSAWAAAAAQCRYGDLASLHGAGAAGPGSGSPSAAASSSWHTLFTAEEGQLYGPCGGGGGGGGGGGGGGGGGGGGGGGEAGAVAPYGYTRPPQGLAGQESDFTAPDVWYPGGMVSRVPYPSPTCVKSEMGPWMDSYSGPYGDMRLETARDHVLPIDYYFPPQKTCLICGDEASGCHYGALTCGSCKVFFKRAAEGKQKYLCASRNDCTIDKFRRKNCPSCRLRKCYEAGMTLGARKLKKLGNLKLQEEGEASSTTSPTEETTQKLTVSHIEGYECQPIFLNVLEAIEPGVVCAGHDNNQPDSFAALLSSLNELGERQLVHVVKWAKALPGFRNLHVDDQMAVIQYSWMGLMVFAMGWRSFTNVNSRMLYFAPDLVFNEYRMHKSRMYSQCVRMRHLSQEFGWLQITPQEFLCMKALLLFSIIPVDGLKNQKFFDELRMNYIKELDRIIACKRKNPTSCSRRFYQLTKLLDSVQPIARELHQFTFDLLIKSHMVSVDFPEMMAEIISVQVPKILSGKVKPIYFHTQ
The assay can be described thus: Co-transfection assay, AR agonist and antagonist activity, CV-1 cells (pRShAR). Conditions: for AR Agonist CV-1 Cells Efficacy (%): agonist mode, relative to DHT; for AR Antagonist CV-1 Cells Efficacy (%): % maximal inhibition. The assay is classed as cell-based.

A further assay deals with T2, human PR-B (Homo sapiens, UniProt P06401).
T2 construct: expressed in transfected cells; host or cells: CV-1 cells (African green monkey kidney fibroblasts), transient transfection
T2 sequence (P06401 1-933): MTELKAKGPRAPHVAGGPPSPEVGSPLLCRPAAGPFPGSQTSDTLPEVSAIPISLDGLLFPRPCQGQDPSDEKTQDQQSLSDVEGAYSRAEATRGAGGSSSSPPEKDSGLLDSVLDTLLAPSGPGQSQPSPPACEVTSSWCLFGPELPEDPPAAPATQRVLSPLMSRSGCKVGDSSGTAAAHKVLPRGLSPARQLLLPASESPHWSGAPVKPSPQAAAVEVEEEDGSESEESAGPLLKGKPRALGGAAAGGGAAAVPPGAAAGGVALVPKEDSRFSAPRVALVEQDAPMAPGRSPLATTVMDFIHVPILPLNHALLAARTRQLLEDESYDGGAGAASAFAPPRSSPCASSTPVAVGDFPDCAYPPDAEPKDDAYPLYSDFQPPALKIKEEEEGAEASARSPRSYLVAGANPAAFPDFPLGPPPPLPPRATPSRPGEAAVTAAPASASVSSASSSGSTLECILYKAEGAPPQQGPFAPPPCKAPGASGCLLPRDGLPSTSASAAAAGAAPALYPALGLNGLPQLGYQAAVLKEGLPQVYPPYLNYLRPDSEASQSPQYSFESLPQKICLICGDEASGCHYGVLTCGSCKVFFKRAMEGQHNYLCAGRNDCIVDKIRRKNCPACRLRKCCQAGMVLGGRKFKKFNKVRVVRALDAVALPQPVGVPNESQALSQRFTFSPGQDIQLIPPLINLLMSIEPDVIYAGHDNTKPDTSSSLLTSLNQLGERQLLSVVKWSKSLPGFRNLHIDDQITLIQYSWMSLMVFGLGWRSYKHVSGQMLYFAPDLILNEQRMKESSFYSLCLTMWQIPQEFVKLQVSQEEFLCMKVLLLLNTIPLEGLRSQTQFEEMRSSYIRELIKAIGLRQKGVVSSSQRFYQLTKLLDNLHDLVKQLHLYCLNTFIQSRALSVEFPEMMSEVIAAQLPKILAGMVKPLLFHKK
The assay can be described thus: Co-transfection assay, PR agonist and antagonist activity, CV-1 cells.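 Further: luciferase reporter driven by a hormone response element, co-transfected with human PR-B into CV-1 monkey kidney cells, agonists raise and antagonists lower the reporter signal.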 The assay is classed as cell-based.

Where [2] appears, read: agonist mode, percent maximal response relative to reference agonist progesterone.
The mark [3] stands for this setting: antagonist mode, progesterone at its EC50, % maximal inhibition.

“8-(4-Chlorobenzoyl)-5-trifluoromethyl-7-pyridono[5,6-e]indoline [Compound 420]”: the “AR Agonist CV-1 Cells Efficacy (%)” value in assay [1] (Table 2) turned out to be 40%. Besides, in assay [1] (Table 2, antagonist mode), the “AR Antagonist CV-1 Cells Efficacy (%)” value was determined as 80%.

With “8-Bromo-12-dihydro-2,2,4-trimethylindeno[1,2-]quinoline [Compound 117]”, on human PR-B (setting [2]), the “PR Agonist CV-1 Cells Efficacy (%)” value is “na (na = not active (i.e. efficacy or <20 and potency of >10,000))”. Moreover, the “PR Antagonist CV-1 Cells Efficacy (%)” value at human PR-B (setting [3]) was 68%.

Regarding `CC1=CC(C)(C)Nc2ccc3c(c21)C(C)Oc1ccc(Cl)cc1-3` (racemic) [Compound 332, (R/S)-9-Chloro-1,2-dihydro-2,2,4,5-tetramethyl-5H-chromeno[3,4-f]quinoline], at human PR-B, the “PR Agonist CV-1 Cells Efficacy (%)” value was determined as 138%; the “PR Antagonist CV-1 Cells Efficacy (%)” value was “na (na = not active (i.e. efficacy or <20 and potency of >10,000))”.

`C[C@H]1C(=O)C(C)(C)Nc2ccc3c(c21)O[C@H](c1ccccc1)c1ccccc1-3` (relative stereo) [Compound 391, (R/S-4l,6l)-1,2,3,4-Tetrahydro-2,2,4-trimethyl-6-phenyl-5H-isochromeno[3,4-f]-3-quinolinone]: at human PR-B (setting [2]), the “PR Agonist CV-1 Cells Efficacy (%)” value was “na (na = not active (i.e. efficacy or <20 and potency of >10,000))”. The “PR Antagonist CV-1 Cells Efficacy (%)” value at human PR-B (setting [3]) is 65%.

As for `CC1C(=O)C(C)(C)Nc2ccc3c(c21)C(c1ccc(Cl)cc1)Oc1ccccc1-3` (single isomer, unassigned; (+)) [Compound 381, (+)-(R*-4l,5l)-5-(4-Chlorophenyl)-1,2,3,4-tetrahydro-2,2,4-trimethyl-5H-chromeno[3,4-f]-3-quinolinone], the “PR Antagonist CV-1 Cells Efficacy (%)” value at human PR-B is “na (na = not active (i.e. efficacy or <20 and potency of >10,000))”.

Turning to `CC1=CC(C)(C)Nc2cc3[nH]c(=O)cc(C(F)(F)F)c3cc21` [Compound 247, 1,2-Dihydro-2,2,4-trimethyl-6-trifluoromethyl-8-pyridono[5,6-g]quinoline], in assay [1] (Table 2), the “AR Agonist CV-1 Cells Efficacy (%)” value is 23%. Also, in assay [1] (Table 2, antagonist mode), the “AR Antagonist CV-1 Cells Efficacy (%)” value is given as 69%.

Consider `CC1=CC(C)(C)Nc2ccc(-c3cc(F)cc(C#N)c3)cc21` [Compound 271, 6-(3-Cyano-5-fluorophenyl)-1,2-dihydro-2,2,4-trimethylquinoline], for which, at human PR-B, the “PR Agonist CV-1 Cells Efficacy (%)” value was “na (na = not active (i.e. efficacy or <20 and potency of >10,000))”; the “PR Antagonist CV-1 Cells Efficacy (%)” value stood at 78%.

Regarding `O=c1cc(C(F)(F)F)c2cc3c(cc2[nH]1)NCC3` [Compound 419, 5-Trifluoromethyl-7-pyridono[5,6-e]indoline], the “AR Agonist CV-1 Cells Efficacy (%)” value in assay [1] (Table 2) is listed as 29%. Also, the “AR Antagonist CV-1 Cells Efficacy (%)” value in assay [1] (Table 2, antagonist mode) amounted to 74%.

As to `CC1(C)CNc2cc3[nH]c(=O)cc(C(F)(F)F)c3cc2C1` [Compound 437, 1,2,3,4-Tetrahydro-3,3-dimethyl-6-trifluoromethyl-8-pyridono[5,6-g]quinoline], the “AR Agonist CV-1 Cells Efficacy (%)” value is “na (na = not active (i.e. efficacy of <20 and potency of >10,000))” in assay [1] (Table 2); “na (na = not active (i.e. efficacy of <20 and potency of >10,000))” in assay [1]. The “AR Antagonist CV-1 Cells Efficacy (%)” value in assay [1] (Table 2, antagonist mode) is on record as 72%. Moreover, in assay [1] (antagonist mode), the “activity as AR antagonists compared with 2-OH-flutamide” value is listed as “equivual or better activity”.

On to “(R/S)-4-Ethyl-1,2,3,4-tetrahydro-1-methyl-8-pyranono[5,6-g]quinoline [Compound 416]”, for which the “AR Agonist CV-1 Cells Efficacy (%)” value in assay [1] (Table 2) and in assay [1] was 88% each time. For the same compound, the “AR Antagonist CV-1 Cells Efficacy (%)” value in assay [1] (Table 2, antagonist mode) is 24%; in assay [1] (antagonist mode, DHT at its EC50), 24%.
